{"source": "patent US20230148418A1", "about": "“TYROSINASE ANTISENSE OLIGONUCLEOTIDES” (OLIPASS CORPORATION, priority 2017, published 2023)", "assay_type_in_all_cases": "cell-based", "key": {"human TYR mRNA": {"tested_on": "human TYR mRNA", "assay": "Nested qPCR for TYR mRNA in human primary epidermal melanocytes", "conditions": "1 zM to 10 aM, 5 hours, significant at 1 zM and 10 aM", "description": "“ASO 1” was evaluated by TYR nested qPCR for its ability to induce changes in the TYR mRNA level in human primary epidermal melanocytes as follows.\n[Cell Culture & ASO Treatment] Primary epidermal melanocytes (Cat. Number PCS-200-013, ATCC) cells were maintained in Dermal Cell Basal Medium (Cat Number PCS-200-030, ATCC) supplemented with Adult Melanocyte Growth Kit Component (Cat. Number PCS-200-042, ATCC). Melanocytes grown in 60 mm culture dish containing 5 mL culture medium were treated with “ASO 1” at 0 zM (negative control), 1 zM, 100 zM, or 10 aM. (3 culture dishes per concentration)\n[RNA Extraction & cDNA Synthesis by One-step PCR] Following an incubation with “ASO 1” for 5 hours, total RNA was extracted using “RNeasy Mini Kit” (Cat. Number 74106, Qiagen) according to the manufacturer's instructions. 200 ng of RNA template was subjected to a 25 μL reverse transcription reaction using Super Script® One-Step RT-PCR kit with Platinum® Taq polymerase (Cat. No. 10928-042, Invitrogen) against a set of exon-specific primers of [exon 1_forward(2): (5′→3′) CTCTTTGTCTGGATGCATT; and exon 5_reverse: (5′→3′) CTGTGGTAATCCTCTTTCT] according to the following cycle conditions specified: 50° C., for 30 min and 94° C. for 2 min, which was followed by 15 cycles of 30 sec at 94° C., 30 sec at 50° C., and 1 min at 72° C.\n(§1) [Nested PCR Amplification] […]"}, "mouse TYR mRNA": {"tested_on": "mouse TYR mRNA", "assay": "Nested qPCR for TYR mRNA in B16F10 mouse melanoma cells", "conditions": "1 to 1,000 aM, 5 hours, normalized to no treatment, significant", "description": "“ASO 1M” was evaluated by TYR nested qPCR for its ability to induce changes in the mouse TYR mRNA level in B16F10 cells as described below.\n[Cell Culture & ASO Treatment] B16F10 cells grown in 60 mm culture dish containing 5 mL DMEM were treated with “ASO 1M” at 0 (negative control), 1, 10,100 or 1000 aM. (2 culture dishes per dose)\n[RNA Extraction & cDNA Synthesis by One-step PCR] Following an incubation with “ASO 1M” for 5 hours, total RNA was extracted from cells using “Universal RNA Extraction Kit” (Cat. No. 9767, Takara) according to the manufacturer's instructions. 200 ng of RNA template were used for a 25 μl reverse transcription reaction using One Step RT-PCR kit (Invitrogen, USA) against a set of exon specific primers of [exon 1_forward: (5′→3′) GTAAGTTTGGATTTGGGG; and exon 4_reverse: (5′→3′) AGAGCGGTATGAAAGGAA] according to the following cycle conditions: 50° C. for 30 min and 94° C. for 2 min, followed by 15 cycles of 30 sec at 94° C., 30 sec at 52° C., and 40 sec at. 72° C.\n[Nested qPCR Amplification] The cDNA solutions were diluted by 100 times, and 1 μl of each diluted PCR product was subjected to a 20 μl Real-Time PCR reaction with a Taqman probe set spanning the junction of exon 2 and exon 3 (Cat. No. Mm00495818_m1, Thermo Fisher Scientific) according to the following cycle conditions: 95° C. for 3 min followed by 30 cycles 10 sec at 95° C., and 30 sec at 60° C. […]"}, "TYR protein": {"tested_on": "TYR protein", "assay": "TYR protein expression by western blot in B16F10 mouse melanoma cells", "conditions": "10 zM to 10 aM, 24 hours", "description": "“ASO 1M” was evaluated for its ability to down-regulate the TYR protein expression in B16F10 mouse melanoma cells as described below.\nB16F10 cells grown in 60 mm culture dish containing 5 mL DMEM were treated with “ASO 1M” at 0 zM (negative control), 10 zM, 100 zM, 1 aM or 10 aM. 24 hours later, cells were washed 2 times with cold PBS (phosphate buffered saline), and then subjected to lysis with 200 μl 1× cell lysis butler (Cat. No. 9803, Cell Signaling Tech) supplemented with 1× protease inhibitors cocktail (Cat. No. P8340, Sigma). 200 μl of each lysate in 1.5 mL e-tube was mixed with […] 5× sample buffer, and boiled at 100° C. for 5 min. 20 μl of the lysate was subjected to electrophoretic separation on a 4-15% gradient TGX gel (Cat No. 456-1086, Bio-Rad), and protein transfer on a 0.45 μm PVDF membrane. The membrane was probed with an anti-TYR antibody (Cat. No. 9319, Cell Signaling Tech) and anti-β-actin antibody (Cat. No. a3845, Sigma)."}, "mouse TYR pre-mRNA": {"tested_on": "mouse TYR pre-mRNA", "assay": "Exon skipping by nested PCR in B16F10 mouse melanoma cells", "conditions": "1 to 1,000 aM, 5 hours, untreated cells gave full-length and exons 2-3 skipped bands", "description": "[Cell Culture & ASO Treatment] B16F10 mouse melanoma cells (Cat. Number CRL-6475, ATCC) were maintained in DMEM (Dulbecco's modified Eagle's essential minimum medium) supplemented with 10% FBS, 1% streptomycin/penicillin, and 0.01 mg/ml bovine insulin. B16F10 cells grown in 60 mm culture dish containing 5 mL DMEM were incubated for 5 hours with “ASO 1M” at 0 (negative control), 1, 10,100 or 1000 aM.\n[RNA Extraction & cDNA Synthesis by One-step PCR] Following an incubation for 5 hours, total RNA was extracted using “Universal RNA Extraction Kit” (Cat. Number 9767, Takara) according to the manufacturer's instructions. 200 ng of RNA template was used for a 25 μl reverse transcription reaction using Super Script® One-Step RT-PCR kit with Platinum® Taq polymerase (Cat. No. 10928-042, Invitrogen) against a set of exon-specific primers of [exon1_forward: (5′→3′) GTAAGTTTGGATTTGGGG; and exon 4_reverse: (5′→3′) AGAGC-GGTATGAAAGGAA] according to the following cycle conditions: 50° C. for 30 min and 94° C. for 2 min, followed by 15 cycles of 30 sec at 94° C. 30 sec at 52° C. and 40 sec at 72° C.\nas §1\n[Identification of Exon Skipping Products] […] The hands of target size were collected and analyzed by Sanger Sequencing."}}, "note": "[C(1O2)] = PNA monomer with modified cytosine nucleobase C(1O2); [A(5)] = PNA monomer with modified adenine nucleobase A(5); [G(6)] = PNA monomer with modified guanine nucleobase G(6); {Fethoc} = Fethoc N-terminal cap of the PNA; {NH2} = C-terminal amide of the PNA"}
{"substance": "Fathoc-CA(5)G-ACA(5)-ATC(1O2)-TG(6)T-A(5)-NH2 (CAGACAATCTGTA; all peptide nucleic acid (PNA), [A(5)] at 2, 6, 13, [C(1O2)] at 9, [G(6)] at 11, 5' {Fethoc}, 3' {NH2}; further chemistry not given here) [ASO 1, 13-mer PNA derivative targeting the 3′ splice site of exon 2 in the human TYR pre-mRNA]", "values": [{"measurement": "Decrease of full-length TYR mRNA level", "setting": "human TYR mRNA", "value": "~30", "unit": "%"}]}
{"substance": "Fethoc-CA(5)A-A(5)TG-A(5)TC(1O2)-TG(6)T-G-NH2 (CAAATGATCTGTG; all peptide nucleic acid (PNA), [A(5)] at 2, 4, 7, [C(1O2)] at 9, [G(6)] at 11, 5' {Fethoc}, 3' {NH2}; further chemistry not given here) [ASO 1M, 13-mer PNA derivative targeting the 3′ splice site of exon 2 in the mouse TYR pre-mRNA; surrogate for ASO 1]", "values": [{"measurement": "Decrease of full-length TYR mRNA level", "setting": "mouse TYR mRNA", "value": "~40", "unit": "%"}, {"measurement": "Band intensity of TYR expression versus negative control", "setting": "TYR protein", "value": "considerably weaker"}, {"measurement": "Exon skipping: PCR products by electrophoresis", "setting": "mouse TYR pre-mRNA", "value": "yielded only the splice variant TYR mRNA lacking exons 2 and 3"}]}
